The record followed here is ChEMBL document CHEMBL4190314, “Quinoline hybrids and their antiplasmodial and antimalarial activities” (Eur J Med Chem, 2017).

Converted amounts (≈) assume the structure as drawn.

Data set [1] relates to Plasmodium falciparum. The data set is described as follows: Antimalarial activity against Plasmodium falciparum 3D7 infected in human erythrocytes after 72 hrs by SYBR Green-1 staining based fluorescence assay. It counts as functional, organism-based. As to conditions: 3D7, 72 h.
Data set [2] relates to Plasmodium falciparum. The data set is described as follows: Antimalarial activity against synchronous culture of Plasmodium falciparum W2 ring stage infected in human erythrocytes after 48 hrs by flow cytometry. It counts as functional, organism-based. The conditions noted are these: W2, 48 h.
For data set [3], the system named is Plasmodium falciparum. The data set is described as follows: Antimalarial activity against chloroquine-sensitive Plasmodium falciparum 3D7 infected in human type A+ erythrocytes after 48 hrs by [3H]-hypoxanthine incorporation assay. Format: functional, organism-based.
The test system of data set [4] is Plasmodium falciparum. The data set is described as follows: Antimalarial activity against chloroquine-resistant Plasmodium falciparum K1 infected in human type A+ erythrocytes after 48 hrs by [3H]-hypoxanthine incorporation assay. Format: functional, organism-based.
For data set [5], the system named is Plasmodium falciparum. The data set is described as follows: Antimalarial activity against chloroquine-sensitive Plasmodium falciparum 3D7 infected in human erythrocytes after 72 hrs by SYBR Green-1 staining based fluorescence assay. Format: functional, organism-based. The conditions noted are these: 3D7, 72 h.
Data set [6] relates to Plasmodium falciparum. The data set is described as follows: microbe, parasite or virus in culture. As to conditions: D10, 24 h.
Description: Antimalarial activity against chloroquine-sensitive Plasmodium falciparum D10 after 24 hrs by [G-3H]-hypoxanthine incorporation assay
Data set [7] can be described thus: Drug uptake in FVB mouse brain at 5 mg/kg, iv administered as single dose by UPLC-MS/MS based equilibrium dialysis method. As to conditions: in vivo. Format: ADME, organism-based. (Equilibrium dialysis compares concentrations on both sides of a semipermeable membrane.)
The test system of data set [8] is Plasmodium falciparum. The data set is described as follows: Antimalarial activity against multiple drug-resistant Plasmodium falciparum C235. It counts as functional.
Data set [9] in a line: Elimination half life in FVB mouse plasma at 5 mg/kg, iv administered as single dose. Format: ADME, organism-based. The conditions noted are these: read-out: beta t1/2 (converted).
Data set [10] in a line: Permeability from apical to basolateral side in MDCK cells. As to conditions: dog, read-out: permeability. It counts as ADME, cell-based, Canis lupus familiaris.
Data set [11] concerns Plasmodium falciparum. The data set is described as follows: Antimalarial activity against […] Plasmodium falciparum D6. It counts as functional.
Data set [12] has as its system Plasmodium falciparum. The data set is described as follows: Antimalarial activity against chloroquine-sensitive Plasmodium falciparum 3D7. As to conditions: 3D7, read-out: ED50.
In data set [13] the test system is Plasmodium falciparum. The data set is described as follows: Antimalarial activity against chloroquine-resistant Plasmodium falciparum K1. Format: functional. The conditions noted are these: read-out: ED50 (the source's name).
In data set [14] the test system is Plasmodium falciparum. The data set is described as follows: Antimalarial activity against chloroquine-sensitive Plasmodium falciparum 3D7 infected in human type A+ erythrocytes after 24 hrs by [3H]-hypoxanthine incorporation assay. Format: functional, organism-based.
Data set [15] relates to Plasmodium falciparum. The data set is described as follows: Antimalarial activity against chloroquine-resistant Plasmodium falciparum W2 infected in human type A+ erythrocytes after 24 hrs by [3H]-hypoxanthine incorporation assay. It counts as functional, organism-based.
Data set [16] concerns Plasmodium falciparum. The data set is described as follows: microbe, parasite or virus in culture. As to conditions: K1, 24 h.
Description: Antimalarial activity against chloroquine-resistant Plasmodium falciparum K1 after 24 hrs by [G-3H]-hypoxanthine incorporation assay

In general, IC50 refers to the point on the concentration scale where inhibition reaches its midpoint. On to `C=C[C@H]1CN2CC[C@H]1C[C@H]2[C@H](OC(=O)[C@H](COCc1ccccc1)NC(=O)OC(C)(C)C)c1ccnc2ccc(OC)cc12`, for which the IC50 in the data set on Plasmodium falciparum [1] was below 100 nM.

For the compound `C=C[C@H]1CN2CC[C@H]1C[C@H]2[C@H](OC(=O)[C@H](Cc1ccccc1)NC(=O)OC(C)(C)C)c1ccnc2ccc(OC)cc12`, the half-maximal inhibitory concentration (IC50) in the data set with Plasmodium falciparum [1] is below 100 nM.

In turn, `O=C(/C=C/c1cccc(F)c1)NCCCCNc1ccnc2cc(Cl)ccc12` displayed an IC50 with Plasmodium falciparum [2] of 11 to 59 nM. Consider `O=C1OC(CN2CCN(c3ccccc3F)CC2)CN1CCNc1ccnc2cc(Cl)ccc12` (centres undefined), for which the IC50 in the data set on Plasmodium falciparum [3] and in the data set on Plasmodium falciparum [4] was 62 to 430 nM in each case. Take `O=C1OC(CN2CCN(c3ccccc3)CC2)CN1CCNc1ccnc2cc(Cl)ccc12` (centres undefined): the IC50 in the data set with Plasmodium falciparum [3] and with Plasmodium falciparum [4] was 62 to 430 nM in each case. `C=C[C@H]1CN2CC[C@H]1C[C@H]2[C@H](OC(=O)[C@H](Cc1ccccc1)NC(=O)c1cn2c3c(c(N4CCN(C)CC4)c(F)cc3c1=O)OC[C@@H]2C)c1ccnc2ccc(OC)cc12`: the 50% inhibitory concentration (IC50) in the data set with Plasmodium falciparum [5] is 12 to 207 nM. As to `CCN(CC)CCCC(C)Nc1cc(CCCCCCCCCCc2cc(NC(C)CCCN(CC)CC)c3ccccc3n2)nc2ccccc12` (centres undefined), the IC50 with Plasmodium falciparum [6] turned out to be 43 nM.

`Cc1ccc(/C=C/C(=O)NCCCCNc2ccnc3cc(Cl)ccc23)cc1` showed a concentration for half-maximal inhibition (IC50) in the data set with Plasmodium falciparum [2] of 11 to 59 nM.

For the compound `CN(C)c1ccc(/C=C/C(=O)NCCCCNc2ccnc3cc(Cl)ccc23)cc1`, the IC50 in the data set on Plasmodium falciparum [2] lay in the range of 11 to 59 nM. By IC90 is commonly meant the point of the concentration-response curve where the effect stands at 90%. In the case of `CN(CCNCC(O)c1cc(C(F)(F)F)nc2c(C(F)(F)F)cccc12)CC(O)c1cc(C(F)(F)F)nc2c(C(F)(F)F)cccc12` (centres undefined), the Drug uptake in [7] was 97 ng/g. The concentration for an effect of 90% (IC90) in the data set on Plasmodium falciparum [8] and in the data set with Plasmodium falciparum [11] was 0.022 to 0.08 µg/mL (≈ 0.032 to 0.116 µM) throughout. Moreover, in data set [9], the half-life is 13 h. Moreover, the Papp A→B in data set [10] was 0.14 ×10⁻⁶ cm/s. Regarding `CCN(CC)CCCC(C)Nc1ccnc2cc(Cl)ccc12` (centres undefined) [CHLOROQUINE], the EC50 is 20 nM in the data set on Plasmodium falciparum [12] and 1030 nM in the data set on Plasmodium falciparum [13]. For the compound `C=C[C@H]1CN2CC[C@H]1C[C@H]2[C@H](O)c1ccnc2ccc(OC)cc12` [QUININE], in the data set with Plasmodium falciparum [1], the IC50 came out at 18 nM. As for `CO[C@@]12OOC3(C=C1C[C@@H]1C=C[C@H]2C1)CCN(c1ccnc2cc(Cl)ccc12)CC3`, the half-maximal inhibitory concentration (IC50) with Plasmodium falciparum [14] and with Plasmodium falciparum [15] was 185 to 240 nM each time. Regarding `C=C[C@H]1CN2CC[C@H]1C[C@H]2[C@H](OC(=O)CNC(=O)[C@@H](NC(=O)OCc1ccccc1)[C@@H](C)CC)c1ccnc2ccc(OC)cc12`, in the data set with Plasmodium falciparum [1], the IC50 was below 100 nM.

Turning to `O[C@@]12OOC3(C=C1C[C@@H]1CC[C@H]2C1)CCN(c1ccnc2cc(Cl)ccc12)CC3`, the 50% inhibitory concentration (IC50) in the data set on Plasmodium falciparum [14] and in the data set with Plasmodium falciparum [15] was 1400 to 2450 nM in each case. In the data set with Plasmodium falciparum [1], `C=C[C@H]1CN2CC[C@H]1C[C@H]2[C@H](OC(=O)[C@H](CCCCNC(=O)OCc1ccccc1)NC(=O)OCc1ccccc1)c1ccnc2ccc(OC)cc12` registered a half-inhibitory concentration (IC50) below 100 nM. In turn, `C=C[C@H]1CN2CC[C@H]1C[C@H]2[C@H](OC(=O)[C@H](C)NC(=O)c1cn(CC)c2nc(C)ccc2c1=O)c1ccnc2ccc(OC)cc12` gave an IC50 with Plasmodium falciparum [5] of 12 to 207 nM. In the data set with Plasmodium falciparum [5], `C=C[C@H]1CN2CC[C@H]1C[C@H]2[C@H](OC(=O)[C@H](C)NC(=O)c1cn2c3c(c(N4CCN(C)CC4)c(F)cc3c1=O)OC[C@@H]2C)c1ccnc2ccc(OC)cc12` showed a half-inhibitory concentration (IC50) of 12 nM. As to `C[C@@H]1CC[C@H]2[C@@H](C)C(=O)O[C@@H]3O[C@@]4(C)CC[C@@H]1[C@]32OO4` [ARTEMISININ], the IC50 in the data set with Plasmodium falciparum [15] turned out to be 19 nM. In the case of `C=C[C@H]1CN2CC[C@H]1C[C@H]2[C@H](OC(=O)[C@@H](NC(=O)c1cn(C2CC2)c2cc(N3CCN(CC)CC3)c(F)cc2c1=O)[C@@H](C)CC)c1ccnc2ccc(OC)cc12`, the IC50 in the data set on Plasmodium falciparum [5] was in the range of 12 to 207 nM. `C=C[C@H]1CN2CC[C@H]1C[C@H]2[C@H](OC(=O)[C@H](C)NC(=O)OC(C)(C)C)c1ccnc2ccc(OC)cc12` displayed a 50% inhibitory concentration (IC50) in the data set on Plasmodium falciparum [1] below 100 nM. `Nc1ccc(/C=C/C(=O)NCCCCNc2ccnc3cc(Cl)ccc23)cc1` registered an IC50 in the data set on Plasmodium falciparum [2] of 11 to 59 nM. Take `C=C[C@H]1CN2CC[C@H]1C[C@H]2[C@H](OC(=O)CNC(=O)OC(C)(C)C)c1ccnc2ccc(OC)cc12`: the IC50 in the data set with Plasmodium falciparum [1] was below 100 nM. On the same count and under the same terms, to `C=C[C@H]1CN2CC[C@H]1C[C@H]2[C@H](OC(=O)[C@H](CC(=O)OCc1ccccc1)NC(=O)OCc1ccccc1)c1ccnc2ccc(OC)cc12` belongs 17 nM. With `COc1ccc(/C=C/C(=O)NCCCCNc2ccnc3cc(Cl)ccc23)cc1OC`, the half-maximal inhibitory concentration (IC50) with Plasmodium falciparum [2] was 11 to 59 nM. For the compound `C=C[C@H]1CN2CC[C@H]1C[C@H]2[C@H](OC(=O)[C@@H](CSCc1ccccc1)NC(=O)OCc1ccccc1)c1ccnc2ccc(OC)cc12`, the IC50 in the data set with Plasmodium falciparum [1] is below 100 nM. Turning to `O[C@@H](c1cc(C(F)(F)F)nc2c(C(F)(F)F)cccc12)[C@H]1CCCCN1` [(S,R)-MEFLOQUINE], the Drug uptake in data set [7] came out at 1600 ng/g. Further, the IC50 was 90 nM in the data set on Plasmodium falciparum [6] and 300 nM with Plasmodium falciparum [16]. Further, in [9], the half-life is 23 h.
